# Measurements from the SangsterLogP compilation.
# Assay: method code SF-AS, from DOI: 10.1246/bcsj.68.782
# Conditions: pH 2.0
row,Compound,logD
1,COc1cc(C(=O)O)cc(OC)c1OC,1.66
2,Cc1ccc([N+](=O)[O-])c(C(=O)O)c1,1.63
3,Cc1ccc(C(=O)O)c(O)c1,2.8
4,Cc1c(C(=O)O)cccc1[N+](=O)[O-],2.16
5,Cc1cc(C(=O)O)ccc1[N+](=O)[O-],2.42
6,Cc1ccc(C(=O)O)cc1[N+](=O)[O-],2.35
7,O=C(O)c1cccc(F)c1F,1.88

# Continued, values first:
row,logD,Compound
1,1.13,COc1cc(C(=O)O)cc(OC)c1O
2,3.29,O=C(O)c1cc(Cl)cc(Cl)c1
3,2.76,O=C(O)c1ccc(Cl)cc1Cl
4,1.75,O=C(O)c1cc(O)c(Br)c(O)c1
5,2.53,O=C(O)c1ccc(Cl)c([N+](=O)[O-])c1
6,1.73,COc1c([N+](=O)[O-])cc(C(=O)O)cc1[N+](=O)[O-]
